Experimental data reported in patent publication US6515000B2, “Fungicidal mixtures based on amide compounds” (BASF Aktiengesellschaft, priority 2000, dated 2003).

Legend:
[1] = test system: mildew of wheat (Blumeria graminis forma specialis tritici); assay: Action against mildew of wheat (protective spray, wheat seedlings cv. Kanzler); type: in vivo; conditions: individual active ingredient, 7 days after inoculation
Experimental: (§1) The active compounds, separately or together, are formulated as a 10% emulsion in a mixture of 70% by weight of cyclohexanone, 20% by weight of Nekanil® LN (Lutensol® AP6, wetting agent having emulsifying and dispersing action based on ethoxylated alkylphenols) and 10% by weight of Emulphor® EL (Emulan® EL, emulsifier based on ethoxylated fatty alcohols) and diluted with water to the desired concentration.
(§2) Evaluation is carried out by determining the infected leaf areas in percent. These percentages are converted into efficacies. The efficacy (W) is calculated as follows using Abbot's formula: […]
α corresponds to the fungal infection of the treated plants in % and β corresponds to the fungal infection of the untreated (control) plants in % An efficacy of 0 means that the infection level of the treated plants corresponds to that of the untreated control plants; an efficacy of 100 means that the treated plants were not infected.
The expected efficacies of the mixtures of the active compounds were determined using Colby's formula [R. S. Colby, Weeds 15, 20-22 (1967)] and compared with the observed efficacies.
Colby's formula: E×x+y−x·y/100
E expected efficacy, expressed in % of the untreated control, when using the mixture of the active compounds A and B at the concentrations a and b x efficacy, expressed in % of the untreated control, when using active compound A at the concentration a y efficacy, expressed in % of the untreated control, when using active compound B at the concentration b.
Leaves of wheat seedlings of the cultivar “Kanzler”, grown in pots, were sprayed to run-off point with an aqueous formulation of active ingredient which had been prepared using a stock solution comprising 10% of active ingredient, 85% of cyclohexanone and 5% of emulsifier, and 24 hours after the spray coating had dried on, the leaves were dusted with spores of mildew of wheat (Blumeria graminis forma specialis tritici). […] After 7 days, the extent of the development of the mildew was determined visually in % infection of the entire leaf surface. […]

[2] = test system: mildew of cucumber (Sphaerotheca fuliginea); assay: Action against mildew of cucumber (protective spray, cucumber seedlings cv. Chinesische Schlange); type: in vivo; conditions: individual active ingredient, 7 days
Experimental: as §1, §2
The expected efficacies of the mixtures of the active compounds were determined using Colby's formula [R. S. Colby, Weeds 15, 20-22 (1967)] and compared with the observed efficacies. […]
Leaves of cucumber seedlings of the cultivar “Chinesische Schlange” which had been grown in pots were, at the cotyledon stage, sprayed to run-off point with an aqueous preparation of active ingredient which had been prepared using a stock solution made of 10% active ingredient, 85% of cyclohexanone and 5% of emulsifier. […] The extent of the mildew development was then determined visually in % infection of the cotyledon surface. […]

dinocap [dinocap (II)]
Efficacy in % of the untreated control ([1]; 6 ppm in the spray liquor): 10% | Efficacy in % of the untreated control ([1]; 12.5 ppm in the spray liquor): 10% | Efficacy in % of the untreated control ([1]; 50 ppm in the spray liquor): 70% | Efficacy in % of the untreated control ([2]; 6 ppm in the spray liquor): 10% | Efficacy in % of the untreated control ([2]; 12.5 ppm in the spray liquor): 20%
